Reference: ChEMBL document CHEMBL2062447, “The cephalostatins. 22. synthesis of bis-steroidal pyrazine pyrones (1)” (2012)

Tested on: P388
Assay: Growth inhibition of mouse P388 cells
Format: functional
Settings: read-out: ED50 (the source's name)

## C[C@]12Cc3nc4c(nc3C[C@@H]1CC[C@@H]1[C@@H]2CC[C@]2(C)C(OS(=O)(=O)C(F)(F)F)=CC[C@@H]12)C[C@@]1(C)[C@@H](CC[C@@H]2[C@@H]1CC[C@]1(C)C(OS(=O)(=O)C(F)(F)F)=CC[C@@H]21)C4
  EC50: 42 µM

## C[C@]12Cc3nc4c(nc3C[C@@H]1CC[C@@H]1[C@@H]2[C@@H](O)C[C@]2(C)/C(=C/[C@@H]3CC(=O)C=CO3)CC[C@@H]12)C[C@@]1(C)[C@@H](CC[C@@H]2[C@@H]1[C@@H](O)C[C@]1(C)/C(=C/[C@H]3CC(=O)C=CO3)CC[C@@H]21)C4
  EC50: 25 µM

## CC(=O)O[C@H]1CC[C@H]2[C@@H]3CC[C@H]4Cc5nc6c(nc5C[C@]4(C)[C@H]3CC[C@]12C)C[C@@H]1CC[C@@H]2[C@H](CC[C@]3(C)[C@@H](OC(C)=O)CC[C@@H]23)[C@@]1(C)C6
  EC50: 91 µM

## C[C@]12Cc3nc4c(nc3C[C@@H]1CC[C@H]1[C@H]3CC=C(c5ccc(=O)oc5)[C@@]3(C)CC[C@@H]12)C[C@@]1(C)[C@@H](CC[C@H]2[C@H]3CC=C(c5ccc(=O)oc5)[C@@]3(C)CC[C@@H]21)C4
  EC50: 57 µM

## C[C@@H]1[C@]2(O[C@H]3C=C4[C@@H]5CC[C@H]6Cc7nc8c(nc7C[C@]6(C)[C@H]5C[C@@H](O)[C@]4(C)[C@]31O)C[C@@H]1CC[C@H]3C4=C[C@@H]5O[C@]6(O[C@](C)(CO)C[C@H]6O)[C@@H](C)[C@]5(O)[C@@]4(C)[C@H](O)C[C@@H]3[C@@]1(C)C8)O[C@](C)(CO)C[C@H]2O [CEPHALOSTATIN 12]
  EC50: 0.076 µM

## C[C@@H]1[C@]2(O[C@H]3C=C4[C@@H]5CC[C@H]6Cc7nc8c(nc7C[C@]6(C)[C@H]5C[C@@H](O)[C@]4(C)[C@]31O)C[C@@H]1CC[C@H]3C4=CC[C@@H]5[C@H](C)[C@@]6(OC[C@]45C(=O)C[C@@H]3[C@@]1(C)C8)OC(C)(C)C[C@H]6O)O[C@](C)(CO)C[C@H]2O [CEPHALOSTATIN 1]
  EC50: 0.001 µM

## C[C@]12Cc3nc4c(nc3C[C@@H]1CC[C@@H]1[C@@H]2CC[C@]2(C)C(=O)CC[C@@H]12)C[C@@]1(C)[C@@H](CC[C@@H]2[C@@H]1CC[C@]1(C)C(=O)CC[C@@H]21)C4
  EC50: 120 µM
